Assays:
Type in all cases: cell-based
SV40 = SV40 infection of HeLa-S3 cells, flow cytometry for large T antigen; settings: 14 μM, MOI of ~1, 48 h.p.i.
Experimental: HeLa-S3 cells were treated with 14 μM P16/16 peptide or vehicle for one hour then infected with SV40 at MOI of ˜1. Forty-eight h.p.i., cells were washed, fixed, and permeabilized with cold methanol for 30 min. Cells were stained for intracellular SV40 large T antigen with fluorophore-conjugated monoclonal antibody PAb101, followed by flow cytometry. The histograms show number of cells and […] fluorescence in the absence or presence of peptide. Traces correspond to mock-infected cells (Line C), mock-infected cells in the presence of peptides (Line D), SV40-infected cells (Line A), and SV40-infected cells in the presence of peptides (Line B).
For studies of SV40 infection, 7.5×105 HeLa-S3 in 6-well plates were incubated with peptides prior to infection. Cells were infected with a crude preparation of SV40 at MOI of ˜1 and fixed with 4% paraformaldehyde at 48 h.p.i. Samples were stained with FITC-conjugated anti-large T antigen antibody (Pab101) (Santa Cruz, pSC147 FITC), followed by flow cytometry to determine the mean fluorescent intensity of T antigen staining.

HeLa-S3 cells = assay: CellTiter-Fluor viability assay; settings: 14 μM for 4 or 24 hours
Experimental: HeLa-S3 cells were incubated with medium, medium plus vehicle, or medium plus 14 μM P16/16 for 4 or 24 hours. Viability assay was performed by using the CellTiter-Fluor viability assay protocol (Promega, Cat #G6082). Briefly, an equal volume of CellTiter-Fluor reagent was added to each well without removing the medium, mixed briefly, then incubated for one hour at 37° C. Fluorescence was measured by using a GloMax Explorer Multimode Microplate Reader (380-400 nmEx/505 nmEm). n.s., not significant.

HPV16 PsV = HPV16 PsV internalization in peptide-treated HeLa-S3 cells, anti-L1 immunofluorescence; settings: 14 μM, MOI of 50, 8 or 16 h at 37° C.
Experimental: HeLa-S3 cells were incubated with 14 μM P16/16 or vehicle for one hour, followed by infection with HPV16 PsV at MOI of 50 at 4° C. for 2 h. Cells were washed with PBS to remove loosely-bound PsV and then shifted to 37° C. to allow virus internalization. After 8 or 16 h at 37° C., samples were fixed with 4% paraformaldehyde, permeabilized with 1% saponin, and stained with anti-L1 antibody. Cells were also stained with DAPI to visualize nuclei and examined by a Leica SP5 confocal microscope.
For the internalization experiments, 5×10^4 HeLa-S3 cells were grown on glass coverslips for 16 hours. After one-hour incubation with or without peptides, PsV at MOI of 50 were added and incubated at 4° C. for 2 hours, washed with PBS three times to remove loosely bound PsV, and shifted to 37° C.to initiate infection. As a control, cells were incubated with the solution used to dissolve peptides alone. At the indicated times post-infection, samples were fixed, permeabilized and stained with anti-L1 and AlexaFluor 488 conjugated secondary antibody. Cells were analyzed by a Leica SP5 confocal microscope.

[1] = tested on: HPV16 PsV containing GFP11-tagged L2; assay: Split GFP assay with peptide, HaCaT/GFP1-10NES cells; settings: 30 μM, MOI of 2000, three h.p.i.
Experimental: FIG. 26A depicts clonal HaCaT/GFP1-10NES cells expressing cytosolic GFP1-10 infected at MOI of 2000 with untagged HPV16 or with HPV16 PsV containing GFP11-tagged L2 in the absence or presence of 30 μM P16/16. Three h.p.i., cells were stained with Hoescht 33342 to visualize nuclei (blue) and examined by confocal microscopy for GFP fluorescence. FIG. 26B the corrected total cellular fluorescence (CTCF) of each cell was calculated and plotted in arbitrary units from three independent experiments. n.s., not significant. FIG. 26C depicts HaCaT/GFP-10NES cells infected as described in FIG. 26A with wild-type HPV16 PsV in the presence of 30 μM P16/16 or in its absence for three hours, followed by removal of PsV and incubation with medium containing peptide for an additional 48 hours. Cells were assessed by flow cytometry to determine reporter protein expression. Infectivity was normalized with that in the absence of peptide. **, p<0.01.
To determine if the cytoplasmic protrusion of L2 of PsV is inhibited by peptides, the split GFP assay was performed. 3×104 clonal HaCaT/GFP1-10NES expressing GFP1-10NES in the cytoplasm were seeded in eight-chambered glass slides and incubated with peptides for an hour prior to infection at MOI of ˜2000 with HPV16 PsV containing wild-type L2 or L2 containing inserted GFP11. […]

## CC[C@H](C)[C@H](NC(=O)[C@@H](NC(=O)[C@H](Cc1ccc(O)cc1)NC(=O)[C@H](CCC(N)=O)NC(=O)[C@@H]1CCCN1C(=O)[C@H](CO)NC(=O)[C@@H](N)CS)[C@@H](C)O)C(=O)N[C@H](C(=O)N[C@@H](C)C(=O)N[C@@H](CC(=O)O)C(=O)N[C@@H](C)C(=O)NCC(=O)N[C@@H](CC(=O)O)C(=O)N[C@@H](Cc1ccccc1)C(=O)N[C@@H](Cc1ccc(O)cc1)C(=O)N[C@@H](CC(C)C)C(=O)N[C@@H](Cc1c[nH]cn1)C(=O)N1CCC[C@H]1C(=O)N[C@@H](CO)C(=O)N[C@@H](Cc1ccc(O)cc1)C(=O)N[C@@H](Cc1ccc(O)cc1)C(=O)N[C@@H](CCSC)C(=O)N[C@@H](CC(C)C)C(=O)N[C@@H](CCCNC(=N)N)C(=O)N[C@@H](CCCCN)C(=O)N[C@@H](CCCNC(=N)N)C(=O)N[C@@H](CCCNC(=N)N)C(=O)N[C@@H](CCCCN)C(=O)N[C@@H](CCCNC(=N)N)C(=O)O)[C@@H](C)CC [P16/16]
SV40
  inhibition of SV40 infection: did not inhibit
HeLa-S3 cells
  toxicity (morphology and cell viability assay): no apparent toxicity
HPV16 PsV
  virus internalization: did not inhibit virus internalization
[1]
  protrusion of L2 C terminus into the cytoplasm (reconstituted GFP): did not inhibit protrusion of the C terminus of the L2 protein into the cytoplasm
